Test results as given in US20210395210A1, “INHIBITION OF BACTERIAL CHAPERONIN SYSTEMS” (THE TRUSTEES OF INDIANA UNIVERSITY, priority 2018, published 2021).
Like-named read-outs stand apart in the source and are kept apart here.

Experiments:
[1] = tested on: Enterobacter cloacae (ATCC 13047); test: Bacterial proliferation assay, E. cloacae; assay type: cell-based
Source text: (§1) Bacterial Strains: Enterococcus faecium—(Orla-Jensen) Schleifer and Kilpper-Balz strain NCTC 7171 (ATCC 19434); Drug sensitive Staphylococcus aureus—Rosenbranch strain Seattle 1945 (ATCC 25923); Methicillin resistant S. aureus (MRSA)—Rosenbach strain HPV107 (ATCC BAA-44); Klebsiella Pneumonia—(Schroeter) Trevisan strain NCTC 9633 (ATCC 13883); Acinetobacter baumannii—Bouvet and Grimont strain 2208 (ATCC 19606); Pseudomonas aeruginosa—(Schroeter) Migula strain NCTC 10332 (ATCC 10145); Enterobacter cloacae—E. cloacae, subsp. cloacae (Jordan) Hormaeche and Edwards strain CDC 442-68 (ATCC 13047).
(§2) Growth Media: All bacteria were grown in Brain Heart Infusion (BHI) broth/agar (Becton, Dickinson and Company). All liquid cultures were grown in BHI media supplemented with 25 mg/L Ca^2+ and 12.5 mg/L Mg^2+ to mimic free physiological concentrations of these cations. A 10 mg/mL Ca^2+ stock solution was prepared by dissolving 3.68 g of CaCl2.2H2O in 100 mL of deionized water, and a 10 mg/mL Mg^2+ stock solution was prepared by dissolving 8.36 g of MgCl2.6H2O in 100 mL deionized water. Both stock solutions were filter-sterilized using 0.2 μm pore size cellulose-acetate filters. 2.5 mL of the sterile 10 mg/mL Ca^2+ stock and 1.25 mL of the sterile 10 mg/mL Mg^2+ stock solutions were added per 1 L of autoclaved BHI medium to obtain 25 mg/L Ca^2+ and 12.5 mg/L Mg^2+ ions, respectively.
(§3) General Assay Protocol: Stock bacterial cultures were streaked onto BHI agar plates and grown overnight at 37° C. Fresh aliquots of broth were inoculated with single bacterial colonies and the cultures were grown overnight at 37° C. with shaking (240 rpm) in cation adjusted BHI media. The following morning, the overnight cultures were sub-cultured (1:5 dilution) into fresh aliquots of cation adjusted BHI media and grown at 37° C. for 1-2 hours with shaking. After 2 h, cultures were diluted into fresh media to achieve final OD600 readings of 0.017. Aliquots of these diluted cultures (30 μL) were added to clear, flat-bottom, 384-well polystyrene plates that were stamped with 0.5 μL of test compounds in 20 μL media. […] Plates were sealed with “Breathe Easy” oxygen permeable membranes (Diversified Biotech) and left to incubate at 37° C. without shaking (stagnant assay). OD600 nm readings were taken at either 6-8 h (S. aureus, MRSA, K. pneumonia, E. cloacae, and P. aeruginosa) or 24 h (E. faecium and A. baumannii). A second set of baseline control plates were prepared analogously, but without any bacteria added, to correct for possible compound absorbance and/or precipitation. Plates were then read at 600 nm using a Molecular Devices SpectraMax Plus384 microplate reader. […] Results presented represent the averages of EC50 values obtained from at quadriplicate (duplicate of duplicate) replicates.

[2] = tested on: Drug sensitive Staphylococcus aureus (ATCC 25923); test: Bacterial proliferation assay, drug sensitive S. aureus; assay type: cell-based
Source text: as §1, §2, §3

[3] = tested on: Pseudomonas aeruginosa (ATCC 10145); test: Bacterial proliferation assay, P. aeruginosa; assay type: cell-based
Source text: as §1, §2, §3

human HSP60/10 = target: T1, human HSP60/10 (Homo sapiens, UniProt P10809); test: HSP60/10-mediated dMDH refolding assay; assay type: biochemical; details: human HSP60/10-dMDH refolding assay
T1 construct: octa-Histidine tag (TEV-cleavable) (N, cleaved yes); made in house; host or cells: HSP60 in E. coli Rosetta 2 (DE3); HSP10 in Rosetta 2 (DE3) pLysS
Experimental: Reagent preparation: For these assays, four primary reagent stocks were prepared: 1) GroEUES-dMDH or HSP60/10-dMDH binary complex stock; 2) ATP initiation stock; 3) EDTA quench stock; 4) MDH enzymatic assay stock. Denatured MDH (dMDH) was prepared by 2-fold dilution of MDH (5 mg/ml, soluble pig heart MDH from Roche, product #10127248001) with denaturant buffer (7 M guanidine-HCl, 200 mM Tris, pH 7.4, and 50 mM DTT). MDH was completely denatured by incubating at room temperature for 45 min. The binary complex solutions were prepared by slowly adding the dMDH stock to a stirring stock with GroEL (or HSP60) in folding buffer (50 mM Tris-HCl, pH 7.4, 50 mM KCl, 10 mM MgCl2, and 1 mM DTT), followed by addition of GroES (or HSP10). The binary complex stocks were prepared immediately prior to dispensing into the assay plates and had final protein concentrations of 83.3 nM GroEL (Mr 800 kDa) or HSP60 (Mr 400 kDa), 100 nM GroES or HSP10 (Mr 70 kDa), and 20 nM dMDH in folding buffer. For the ATP initiation stock, ATP solid was diluted into folding buffer to a final concentration of 2.5 mM. Quench solution contained 600 mM EDTA (pH 8.0). The MDH enzymatic assay stock consisted of 20 mM sodium mesoxalate and 2.4 mM NADH in reaction buffer (50 mM Tris-HCl, pH 7.4, 50 mM KCl, and 1 mM DTT).
Assay Protocol: First, 30 μL aliquots of the GroEL/ES-dMDH or HSP60/10-dMDH binary complex stocks were dispensed into clear, 384-well polystyrene plates. […] The chaperonin-mediated refolding cycles were initiated by addition of 20 μL of ATP stock (reagent concentrations during refolding cycle: 50 nM GroEL or HSP60, 60 nM GroES or HSP10, 12 nM dMDH, 1 mM ATP, and compounds of 100 μM to 46 nM, 3-fold dilution series). The refolding reactions were incubated at 37° C. […] Next, the assay was quenched by addition of 10 μL of the EDTA to final concentration of 100 mM. […] A340 nm measurements were recorded at 0.5 minutes (start point) and at successive time points until the amount of NADH consumed reached ˜90% (end point, generally between 20-35 minutes). The differences between the start and end point A340 values were used to calculate the % inhibition of the GroEL/ES or HSP60/10 machinery by the compounds. […] Results presented represent the averages of IC50 values obtained from at least quadriplicate (duplicate of duplicate) replicates.

[4] = ATCC13047, OD600 at 6-8 h, read-out: Bacterial Proliferation EC50 E. cloacae
[5] = ATCC13047, log of EC50 (μM scale), with standard deviation, read-out: log(EC50) Bacterial Proliferation Assay E. cloacae (converted)
[6] = ATCC25923, OD600 at 6-8 h, read-out: Bacterial Proliferation EC50 S. aureus Sensitive
[7] = ATCC25923, log of EC50 (μM scale), with standard deviation, read-out: log(EC50) Bacterial Proliferation Assay S. aureus Sensitive (converted)
[8] = ATCC10145, OD600 at 6-8 h, read-out: Bacterial Proliferation EC50 P. aeruginosa
[9] = ATCC10145, log of EC50 (μM scale), with standard deviation, read-out: log(EC50) Bacterial Proliferation Assay P. aeruginosa (converted)
[10] = read-out: HSP60/10-dMDH Refolding IC50
[11] = log(IC50) ± standard deviation, read-out: HSP60/10-dMDH Refolding Assay log(IC50) (converted)

T1 sequence (P10809 27-573): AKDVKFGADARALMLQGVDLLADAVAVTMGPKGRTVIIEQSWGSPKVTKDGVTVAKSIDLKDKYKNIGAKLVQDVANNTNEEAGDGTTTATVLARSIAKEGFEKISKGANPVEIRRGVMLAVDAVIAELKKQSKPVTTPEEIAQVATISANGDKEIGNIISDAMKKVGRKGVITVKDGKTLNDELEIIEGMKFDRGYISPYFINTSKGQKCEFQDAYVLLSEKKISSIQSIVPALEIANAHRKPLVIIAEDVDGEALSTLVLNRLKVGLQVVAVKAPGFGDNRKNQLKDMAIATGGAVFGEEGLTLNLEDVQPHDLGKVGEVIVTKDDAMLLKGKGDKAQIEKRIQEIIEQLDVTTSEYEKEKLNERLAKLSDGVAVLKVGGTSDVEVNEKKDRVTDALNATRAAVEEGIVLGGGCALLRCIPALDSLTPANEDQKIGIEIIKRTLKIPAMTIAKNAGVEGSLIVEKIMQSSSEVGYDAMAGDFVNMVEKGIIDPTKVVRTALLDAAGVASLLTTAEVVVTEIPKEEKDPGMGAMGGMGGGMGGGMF

Structure (SMILES)	EC50 [1, 4]	EC50 [1, 5]	EC50 [2, 6]	EC50 [2, 7]	EC50 [3, 8]	EC50 [3, 9]	IC50 (human HSP60/10; [10])	IC50 (human HSP60/10; [11])
O=C(Nc1cccc(Cl)c1)c1ccccc1 [Compound 25, N-(3-Chlorophenyl)benzamide]	> 100 µM	> 100 µM	> 100 µM	> 100 µM	> 100 µM	> 100 µM	> 100 µM	> 100 µM
O=C(Nc1ccccc1)c1cc(Br)cc(Br)c1 [Compound 26, 3,5-Dibromo-N-phenylbenzamide]	> 100 µM	> 100 µM	> 100 µM	> 100 µM	> 100 µM	> 100 µM	> 100 µM	> 100 µM
O=C(Nc1ccccc1)c1cccc(Br)c1 [Compound 27, 3-Bromo-N-phenylbenzamide]	> 100 µM	> 100 µM	> 100 µM	> 100 µM	> 100 µM	> 100 µM	> 100 µM	> 100 µM
COc1c(Br)cc(Br)cc1C(=O)Nc1ccc(Sc2nc3ccccc3s2)c(Cl)c1 [Compound 29, N-(4-(Benzo[d]thiazol-2-ylthio)-3-chlorophenyl)-3,5-dibromo-2-methoxybenzamide]	> 100 µM	> 100 µM	> 100 µM	> 100 µM	> 100 µM	> 100 µM	> 100 µM	> 100 µM
COc1c(Br)cccc1C(=O)Nc1ccc(Sc2nc3ccccc3s2)c(Cl)c1 [Compound 30, N-(4-(Benzo[d]thiazol-2-ylthio)-3-chlorophenyl)-3-bromo-2-methoxybenzamide]	> 100 µM	> 100 µM	> 100 µM	> 100 µM	> 100 µM	> 100 µM	> 100 µM	> 100 µM
COc1ccc(Br)cc1C(=O)Nc1ccc(Sc2nc3ccccc3s2)c(Cl)c1 [Compound 31, N-(4-(Benzo[d]thiazol-2-ylthio)-3-chlorophenyl)-5-bromo-2-methoxybenzamide]	> 100 µM	> 100 µM	> 100 µM	> 100 µM	> 100 µM	> 100 µM	> 100 µM	> 100 µM
COc1ccccc1C(=O)Nc1ccc(Sc2nc3ccccc3s2)c(Cl)c1 [Compound 32, N-(4-(Benzo[d]thiazol-2-ylthio)-3-chlorophenyl)-2-methoxybenzamide]	> 100 µM	> 100 µM	> 100 µM	> 100 µM	> 100 µM	> 100 µM	> 100 µM	> 100 µM
COc1c(Br)cc(Br)cc1C(=O)Nc1ccc(Sc2nc3ccccc3s2)cc1 [Compound 33, N-(4-(Benzo[d]thiazol-2-ylthio)phenyl)-3,5-dibromo-2-methoxybenzamide]	> 100 µM	> 100 µM	> 100 µM	> 100 µM	> 100 µM	> 100 µM	> 100 µM	> 100 µM
COc1c(Br)cccc1C(=O)Nc1ccc(Sc2nc3ccccc3s2)cc1 [Compound 34, N-(4-(Benzo[d]thiazol-2-ylthio)phenyl)-3-bromo-2-methoxybenzamide]	> 100 µM	> 100 µM	> 100 µM	> 100 µM	> 100 µM	> 100 µM	> 100 µM	> 100 µM
COc1ccc(Br)cc1C(=O)Nc1ccc(Sc2nc3ccccc3s2)cc1 [Compound 35, N-(4-(Benzo[d]thiazol-2-ylthio)phenyl)-5-bromo-2-methoxybenzamide]	> 100 µM	> 100 µM	> 100 µM	> 100 µM	> 100 µM	> 100 µM	> 100 µM	> 100 µM
COc1ccccc1C(=O)Nc1ccc(Sc2nc3ccccc3s2)cc1 [Compound 36, N-(4-(Benzo[d]thiazol-2-ylthio)phenyl)-2-methoxybenzamide]	> 100 µM	> 100 µM	> 100 µM	> 100 µM	> 100 µM	> 100 µM	> 100 µM	> 100 µM
COc1c(Br)cc(Br)cc1C(=O)Nc1cccc(Cl)c1 [Compound 37, 3,5-Dibromo-N-(3-chlorophenyl)-2-methoxybenzamide]	> 100 µM	> 100 µM	46 µM	45.7 µM	> 100 µM	> 100 µM	> 100 µM	> 100 µM
COc1c(Br)cccc1C(=O)Nc1cccc(Cl)c1 [Compound 38]	> 100 µM	> 100 µM	> 100 µM	> 100 µM	> 100 µM	> 100 µM	> 100 µM	> 100 µM
COc1ccc(Br)cc1C(=O)Nc1cccc(Cl)c1 [Compound 39, 5-Bromo-N-(3-chlorophenyl)-2-methoxybenzamide]	> 100 µM	> 100 µM	> 100 µM	> 100 µM	> 100 µM	> 100 µM	> 100 µM	> 100 µM
COc1ccccc1C(=O)Nc1cccc(Cl)c1 [Compound 40, N-(3-Chlorophenyl)-2-methoxybenzamide]	> 100 µM	> 100 µM	> 100 µM	> 100 µM	> 100 µM	> 100 µM	> 100 µM	> 100 µM
